# In patent US6511970B1, “Prevention of ovarian cancer by administration of products that induce transforming growth factor-beta and/or apoptosis in the ovarian epithelium” (New Life Pharmaceuticals Inc., priority 1996, dated 2003):
# What was measured:
# [1] = tested on: TGF β3; test: Anti-TGF β3 immunohistochemical staining of M-100 cells; format: cell-based, human; conditions: 100 nM, 72 hours
# Description: An immortalized cell line, M-100, derived from a normal human ovarian epithelial cell culture established in our laboratory was plated in 100 mm plates at a concentration of 1 million cells per plate, in the presence of either 1,25 (OH)2 D3 or the Vitamin D analogue […] at doses of each (100 nM) or control medium, and allowed to incubate for 72 hours. After 72 hours, cells were scraped from each of the plates, fixed on glass slides, and stained immunohistochemically with anti-TGF β3 antibody.
# [2] = tested on: human ovarian epithelial cells; test: Cell death ELISA in normal human ovarian epithelial cell culture; format: cell-based; conditions: 100 nM, 96 hours, p=0.01
# Description: Example 10 addresses the effect of administration of Vitamin D on human ovarian epithelial cells. According to this example, a cell culture derived from normal ovarian epithelial cells was plated in 24 well plates at a concentration of 100,000 cells per well. After 24 hours, the wells were treated with 1,25-dihydroxyvitamin D3 at a 100 nM concentration or control medium, and allowed to incubate for 96 hours. All experiments were carried out in triplicate. After 96 hours, cell lysates were extracted from each of the wells, and the cytoplasmic fraction was normalized for cell number and analyzed for DNA-histone complexes indicative of apoptosis using a cell death ELISA (Boehringer Mannheim). A significant (300%) increase in apoptosis (p=0.01) was measured in the human ovarian epithelial cells treated with Vitamin D as compared with the controls.
# [3] = serum; cited from earlier work
# [4] = tested on: ovarian epithelial cells; test: Apoptosis in monkey ovarian surface epithelium in vivo (Apoptag-plus staining); design: species or system cynomolgus monkeys; conditions: in diet, Triphasil-pattern human-equivalent doses, 28-day cycles for 2 years
# Description: Young female adult cynomolgus monkeys were fed a diet for […] that contained either no hormones, the oral combination contraceptive “[…],” the estrogenic component of “[…] estradiol) alone, or the progestin component of “[…]” (levonorgestrel) alone, each administered in the same pattern that occurs in a “[…]” regimen. Doses were scaled on the basis of caloric intake, which is the accepted way to achieve human-equivalent doses. […] This cyclic regimen was repeated every 28 days continuously for 2 years. At the completion of the two years of the study, the animals were sacrificed, and their ovaries were removed and both formalin-fixed and paraffin embedded as well as flash frozen and stored at minus 70 degrees Celsius. Five-micron ovarian sections were mounted on coated slides, and stained with the Apoptag-plus kit (Oncor, Gaithersburg, Md.), which specifically labels the 3' end of free DNA fragments in cells undergoing DNA fragmentation, a characteristic of apoptosis. After staining, cells undergoing apoptosis were easily identified by their dark brown nuclear discoloration. The ovarian surface epithelium was examined histologically to assess ovarian epithelial morphology and to determine the percentage of ovarian cells undergoing apoptosis. To calculate the percentage of ovarian epithelial cells undergoing apoptosis, both the total number of ovarian epithelial cells and the number undergoing apoptosis were counted on each five-micron ovarian section. At each step, the investigators were completely blinded with regard to which treatment group was associated with each ovary.
# [5] = tested on: TGF beta-3; test: TGF beta-3 immunohistochemical staining in monkey ovarian epithelium; format: in vivo, cynomolgus monkeys; conditions: Triphasil-pattern doses in diet
# Description: (§1) Young female adult cynomolgus monkeys were fed a diet for three years that contained either no hormones, the oral combination contraceptive “[…],” the estrogenic component of “[…] estradiol) alone, or the progestin component of “[…]” (levonorgestrel) alone, each administered in the same pattern that occurs in a “[…]” regimen. Doses were scaled on the basis of caloric intake, which is the accepted way to achieve human-equivalent doses. […] This cyclic regimen was repeated every 28 days continuously for 2 years. In a similar experiment, the effect of hormone treatment on expression of TGF-β3 was examined in the ovaries of primates from the trial described above. This study uses monkeys that were randomized in the study above of apoptosis in the ovarian epithelium. […] Ovarian sections from each of the monkeys were stained immunohistochemically for expression of TGF beta-3, using an anti-TGF-beta-3 monoclonal antibody. […] Two blinded observers then quantitated degree of expression of TGF-β3 by grading the intensity of staining on a scale of 1-4+ in several ovarian compartments: 1) epithelium, 2) oocytes, 3) endothelial cells, 4) granulosa cells. The staining was characterized as negative (0-2+) versus positive (3-4+). The following tables show the distribution of negative (0-2) and positive (3-4) staining among the randomized treatment groups for each separate ovarian compartment (i.e.: epithelial, oocyte cytoplasm, granulosa, and endothelial).
# [6] = tested on: TGF beta-3; test: TGF beta-3 immunohistochemical staining in monkey ovarian granulosa cells; format: in vivo, cynomolgus monkeys; conditions: Triphasil-pattern doses in diet
# Description: as §1
# [7] = tested on: TGF beta-3; test: TGF beta-3 immunohistochemical staining in monkey ovarian oocytes; format: in vivo, cynomolgus monkeys; conditions: Triphasil-pattern doses in diet
# Description: as §1
# [8] = tested on: TGF beta-3; test: TGF beta-3 immunohistochemical staining in monkey ovarian endothelial cells; format: in vivo, cynomolgus monkeys; conditions: Triphasil-pattern doses in diet
# Description: as §1
# [9] = tested on: M-100 immortalized human ovarian epithelial cells; test: Cell death ELISA (DNA-histone complexes) in M-100 cells; format: cell-based; conditions: 20 ng/ml, 96 hours, P<0.05
# Description: Specifically, a spontaneously immortalized cell line, M-100, derived from a normal human ovarian epithelial cell culture was plated in 24 well plates at a concentration of 100,000 cells per well. […] All experiments were performed in triplicate.
# [10] = tested on: ovarian and oviductal tumors; test: Two-year chemoprevention trial in the chicken; format: in vivo; conditions: two-year mark; feed restriction (anovulatory); preliminary results
# Description: A two-year prevention trial was performed in the chicken, designed to test the hypothesis that progestins confer prevention against ovarian cancer. Two thousand two year-old birds were randomized into several groups, including untreated controls, and groups receiving the progestins provera or levonorgestrel. The trial has just completed, and tumors accrued during the trial are currently being studied.
Structure (SMILES),TGF β3 expression as compared to controls (in words) [1],Median Percent of Apoptotic Cell Counts [4] [%],Range Percent of Apoptotic Cell Counts [4],"Epithelial staining Negative (0-2+), number of monkeys [5]","Epithelial staining Positive (3-4+), number of monkeys [5]","Epithelial staining Positive (3-4+), percent of monkeys [5]","Granulosa Cell staining Negative (0-2+), number of monkeys [6]","Granulosa Cell staining Positive (3-4+), number of monkeys [6]","Granulosa Cell staining Positive (3-4+), percent of monkeys [6]","Oocyte cytoplasm staining Negative (0-2+), number of monkeys [7]","Oocyte cytoplasm staining Positive (3-4+), number of monkeys [7]","Oocyte cytoplasm staining Positive (3-4+), percent of monkeys [7]","Endothelial staining Negative (0-2+), number of monkeys [8]","Endothelial staining Positive (3-4+), number of monkeys [8]","Endothelial staining Positive (3-4+), percent of monkeys [8]",fewer ovarian and oviductal tumors than controls [10] [%],other results
C=C1/C(=C\C=C2/CCC[C@]3(C)[C@@H]([C@H](C)/C=C/C=C/C(O)(CC)CC)CC[C@@H]23)C[C@@H](O)C[C@@H]1O [E1089],significant increase in TGF β3 expression,,,,,,,,,,,,,,,,
"C=C1/C(=C\C=C2/CCC[C@]3(C)[C@@H]([C@H](C)CCCC(C)(C)O)CC[C@@H]23)C[C@@H](O)C[C@@H]1O [1,25-dihydroxyvitamin D3]",significant increase in TGF β3 expression,,,,,,,,,,,,,,,,increase in apoptosis as compared with the controls [2]: 300%; half-life [3]: 6 to 8 h
"C#C[C@]1(O)CC[C@H]2[C@@H]3CCC4=CC(=O)CC[C@@H]4[C@H]3CC[C@@]21CC [Levonorgestrel, levonorgestrel]",,24.9,3.5-61.8%,0,17,(100%),16,1,(6%),3,14,(82%),1,16,(94%),35,increase in apoptosis as compared to controls [9]: 100%
"C#C[C@]1(O)CC[C@H]2[C@@H]3CCc4cc(O)ccc4[C@H]3CC[C@@]21C [Ethinyl Estradiol (EE), ethinyl estradiol]",,1.8,0.1-28.6%,19,2,(10%),13,8,(38%),4,17,(81%),21,5,(23%),,Median Percent of Apoptotic Cell Counts ([4]; listed as Ethinyl-estradiol-only): 1.8%
C=C1CC[C@H](O)C/C1=C/C=C1\CCC[C@]2(C)[C@@H]([C@H](C)CCCC(C)(C)O)CC[C@@H]12 [25-hydroxyvitamin D3],,,,,,,,,,,,,,,,,biological half-life (in words) [3]: several weeks
"CC(=O)O[C@]1(C(C)=O)CC[C@H]2[C@@H]3C[C@H](C)C4=CC(=O)CC[C@]4(C)[C@H]3CC[C@@]21C [provera, medroxyprogesterone acetate]",,,,,,,,,,,,,,,,35,
